Source: patent US6613880B2, “Pipecolic acid derivatives of proline threonine amides useful for the treatment of rheumatoid arthritis” (Pharmacia Corporation, priority 1995, dated 2003)
Square brackets hold non-standard residues; d marks the D form. Peptide text beside a SMILES is read from it. * marks the point of attachment. ξ: configuration not given here. Butanoyl(3S-cHex) = C[C@@H](CC(=O)*)C1CCCCC1; Propanoyl(3-cHex) = O=C(CCC1CCCCC1)*; Thr(3ξ) = CC(O)[C@H](N)C(=O)O; Leu(ol) = CC(C)C[C@H](N)CO; Pip = O=C(O)[C@@H]1CCCCN1; NHPr = CCCN*

Target: T1, DR(αβ1*0401) molecules (DR4) (Homo sapiens, UniProt P01903+P01911, A100K/A169T/F76Y/I96L/K127E/L162R/M171V/N62H/P40V/Q125Y/R42H/S133A/S149N/S66Y/V115G/V209L/W38E)
T1 construct: made in house
Experiment: Competitive Binding for DR4 (Competition Capture ELISA)
Conditions: competition with 50 nM biotinylated ML37-49 peptide for immunoaffinity purified DRB1*0401, pH 5.5, overnight at 37° C.
Procedure: Competitive Binding for DR4 (Competition Capture ELISA)
DR(αβ1*0401) molecules are affinity purified with L243 monoclonal antibody (hybridoma obtained from ATCC) using a modification of a published procedure (Gorga, J. C., et al., 1991. Res. Immunol. 142:401-407.). Duplicate samples of immunoaffinity purified DRB1*0401 molecules (0.5 μg/well) are incubated overnight at 37° C. with 50 nM biotinylated ML37-49 peptide in the presence or absence of 1 nM to 100 μM competitor peptides in 96-well polypropylene microtiter plates (Costar, Cambridge, Mass.). All dilutions are made in phosphate buffered saline, pH 5.5 containing 1% octaglucoside (Boehringher Mannheim). LB3.1 antibody (obtained from J. Strominger, Cambridge, Mass.) is plated onto flat-bottom 96-well polystyrene microtiter plates (Falcon, Becton-Dickinson, Mountainview, Calif.) in 0.1 M carbonate coating buffer, pH 9.6 overnight at 4° C. Antibody coated microtiter plates are blocked with 1% Carnation nonfat milk for 1 hr at room temperature. The plates are washed 3 times with PBS containing 0.05% Tween 20 (Biorad, Hercules, Calif.). The class II/peptide mixtures are added, incubated for 1 hr at 37° C., and washed as described above. Extravidin conjugated horseradish peroxidase (1:1000, Sigma Chemicals) is added to the wells and incubated for 30-60 min at 37° C. The plates are washed again, then incubated with o-phenylenediamine dihydrochloride and H2O2 (Sigma Chemicals, St. Louis, Mo.) in 0.5 M phosphate-citrate buffer, pH 5.0. The absorbance of each well is read at 450 nm.

| IC50 | Compound |
| --- | --- |
| 259 nM | CCCNC(=O)[C@@H](NC(=O)[C@@H]1CCCN1C(=O)[C@H](CC(=O)O)NC(=O)[C@@H]1CCCCN1C(=O)[C@H](CCCCN)NC(=O)CCC1CCCCC1)[C@@H](C)O [Example 3, CPA-Lys-Pec-Asp-Pro-Thr-propylamide] ({Propanoyl(3-cHex)}-K[Pip]DPT-NHPr) |
| 116 nM | CC(C)C[C@@H](CO)NC(=O)[C@@H](NC(=O)[C@@H]1CCCN1C(=O)[C@H](CC(=O)O)NC(=O)[C@@H]1CCCCN1C(=O)[C@H](CCCCN)NC(=O)C[C@H](C)C1CCCCC1)[C@@H](C)O [Example 4, (S)-CBA-Lys-Pec-Asp-Pro-Thr-leucinol] ({Butanoyl(3S-cHex)}-K[Pip]DPT[Leu(ol)]) |
| 30 nM | CCCNC(=O)[C@@H](NC(=O)[C@@H]1CCCN1C(=O)[C@H](CC(=O)O)NC(=O)[C@@H]1CCCCN1C(=O)[C@@H](NC(=O)C[C@H](C)C1CCCCC1)C(C)C)C(C)O (stereo partly drawn) [Example 1, (S)-CBA-Val-Pec-Asp-Pro-Thr-propylamide] ({Butanoyl(3S-cHex)}-V[Pip]DP[Thr(3ξ)]-NHPr) |
| 289 nM | (S)-CBA-Lys-Pec-Asp-Pro-Thr-propylamide [Example 2] |
